Source: patent US7332279B2 (Glycozym APS, priority 1999, dated 2008)

Key:
β4Gal-T2 = target: T1, β4Gal-T2 (Homo sapiens, UniProt O60909); test: Galactosyltransferase assay, recombinant β4Gal-T2, saccharide acceptors; assay type: biochemical
T1 construct: The kinetic properties were determined with partially purified, secreted forms of the enzymes; made in house; host or cells: baculovirus; insect cells (Sf9 / High Five)
T1 sequence (O60909 37-372 limits assumed): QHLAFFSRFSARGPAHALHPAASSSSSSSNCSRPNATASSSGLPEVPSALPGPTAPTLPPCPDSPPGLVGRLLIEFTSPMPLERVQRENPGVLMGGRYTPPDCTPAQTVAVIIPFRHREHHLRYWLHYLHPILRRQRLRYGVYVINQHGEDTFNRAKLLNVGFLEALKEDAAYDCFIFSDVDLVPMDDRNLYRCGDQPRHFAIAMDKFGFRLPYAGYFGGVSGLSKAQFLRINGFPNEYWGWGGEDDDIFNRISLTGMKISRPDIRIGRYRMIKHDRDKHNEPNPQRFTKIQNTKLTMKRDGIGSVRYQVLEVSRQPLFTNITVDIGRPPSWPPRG
Method: (§1) An expression construct (pAcGP67-β3Gal-T5-sol) designed to exclude the hydrophobic transmembrane segment and to encode amino acid residues 25-310, was prepared by PCR using P1 genomic DNA, and the primer pair EBER1300 sol (5′-[…]) (SEQ ID NO:3) and EBER1310 (5′-[…]) (SEQ ID NO:4) (FIG. 1), which included BamHI restriction sites. PCR product was cloned into the BamHI site of pAcGP67B (Pharmingen). An expression construct (pVL-β3Gal-T5-full) designed to encode the full coding sequence (from first ATG, FIG. 1) was prepared by PCR with P1 genomic DNA using the primer pair EBER1309 (5′-[…]) (SEQ ID NO:5) and EBER1310. This PCR product was cloned into the BamHI site of pVL1193 (Pharmingen). Both soluble and full length constructs were fully sequenced to confirm fidelity. Plasmids pAcGP67-β3GalT5-sol and pVL-β3Gal-T5-full were co-transfected with Baculo-Gold™ DNA (Pharmingen) as described previously (Bennett, E. P., Hassan, H. and Clausen, H. cDNA cloning and expression of a novel human UDP-N-acetyl-alpha-D-galactosamine. Polypeptide N-acetyl-galactosaminyl-transferase, GalNAc-T3. J. Biol. Chem. 271:17006-17012, 1996). Recombinant Baculo-virus were obtained after two successive amplifications in Sf9 cells grown in serum-containing medium, and titers of virus were estimated by titration in 24-well plates with monitoring of enzyme activities. […] Polypeptide N-acetyl-galactosaminyl-transferase, GalNAc-T3. J. Biol. Chem. 271:17006-17012, 1996). For large scale expression amplified virus was used to infect High Five™ cells grown in serum-free media (Invitrogen) in upright roller bottles shaking at 140 rpm and 27° C.
(§2) The kinetic properties were determined with partially purified, secreted forms of the enzymes. Semipurification of enzymes from serum-free medium of infected High-Five™ cells was performed by sequential Amberlite, DEAE-Sephacel and 5-Sepharose chromatography as described previously (Wandall, H. H., Hassan, H., Mirgorodskaya, E., et al. Substrate specificities of three. members of the human UDP-N-acetyl-alpha-D-galactosamine:Polypeptide Nacetylgalactosaminyltransferase family, GalNAc-T1, -T2, and -T3. J. Biol. Chem. 272:23503-23514, 1997). Comparisons of enzymes were performed relatively to the activity obtained with βGlcNAc-Bz1 (Tables II and III). Full length enzymes were assayed with 1% Triton CF54 homogenates of washed cells. Enzyme assays were performed in 50 μl total reaction mixtures containing 25 mM Cacodylate (pH 7.5), 10 mM MnCl2, 0.25% Triton X-100, 100 μM UDP-[^14C]-Gal (2,600 cpm/nmol) (Amersham), and varying concentrations of acceptor substrates (Sigma) (see Table I for structures). Reaction products were quantified by Dowex-1 chromatography. […] The transfer of Gal was evaluated after acid precipitation by filtration through Whatman GF/C glass fibre filters. […] Assays with glycolipid acceptors were conducted as previously described (Holmes, E. H. Characterization and membrane organization of beta 1-3- and beta 1-4-galactosyltransferases from human colonic adenocarcinoma cell lines Cob 205 and SW403: basis for preferential synthesis of type 1 chain lacto-series carbohydrate structures. Arch Biochem Biophys 270:630-646, 1989) in reaction mixtures containing 2.5 μmol HEPES buffer, pH 7.2, μmol MnCl2, 100 μg taurodeoxycholate or Triton CF-54, 20 μg acceptor glycolipid, 15 nmol UDP-[^14C]-galactose (13,000 cpm/nmol) and enzyme in a total volume of 100 μl. Conditions for incubation and product isolation were as previously described (Id.).

β4Gal-T3 = target: T2, β4Gal-T3 (Homo sapiens, UniProt O60512); test: Galactosyltransferase assay, recombinant β4Gal-T3, saccharide acceptors; assay type: biochemical
T2 construct: The kinetic properties were determined with partially purified, secreted forms of the enzymes; made in house; host or cells: baculovirus; insect cells (Sf9 / High Five)
Method: as §1, §2

T2 sequence (O60512 32-393 limits assumed): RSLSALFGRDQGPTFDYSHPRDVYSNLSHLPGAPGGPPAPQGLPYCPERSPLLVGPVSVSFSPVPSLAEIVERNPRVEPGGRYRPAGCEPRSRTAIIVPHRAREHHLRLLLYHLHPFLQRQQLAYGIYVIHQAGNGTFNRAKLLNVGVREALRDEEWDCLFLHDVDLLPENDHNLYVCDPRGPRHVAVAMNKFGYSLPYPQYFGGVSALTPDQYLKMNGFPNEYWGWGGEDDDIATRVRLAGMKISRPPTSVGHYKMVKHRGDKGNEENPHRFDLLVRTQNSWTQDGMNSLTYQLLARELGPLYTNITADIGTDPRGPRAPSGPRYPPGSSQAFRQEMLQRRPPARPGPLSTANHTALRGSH

β4Gal-T2 activity, acceptor 0.2 mM (β4Gal-T2) [nmol/min]	β4Gal-T2 ratio to value with βGlcNAc-Bzl, acceptor 0.2 mM (β4Gal-T2)	β4Gal-T2 activity, acceptor 2 mM (β4Gal-T2; 2 mM) [nmol/min]	β4Gal-T2 ratio to value with βGlcNAc-Bzl, acceptor 2 mM (β4Gal-T2; 2 mM)	β4Gal-T3 activity, acceptor 0.2 mM (β4Gal-T3; 0.2 mM) [nmol/min]	β4Gal-T3 ratio to value with βGlcNAc-Bzl, acceptor 0.2 mM (β4Gal-T3; 0.2 mM)	β4Gal-T3 activity, acceptor 2 mM (β4Gal-T3; 2 mM) [nmol/min]	β4Gal-T3 ratio to value with βGlcNAc-Bzl, acceptor 2 mM (β4Gal-T3; 2 mM)	β4Gal-T2 activity with βGlcNAc-Bzl (β4Gal-T2; β-D-GlcNAc-Bzl at 0.25 mM) [nmol/min]	β4Gal-T3 activity with βGlcNAc-Bzl (β4Gal-T3; β-D-GlcNAc-Bzl at 2 mM) [nmol/min]	SMILES
0.03	(1.0)	–	–	–	–	–	–	–	–	CC(=O)N[C@H]1[C@H](OC[C@H]2O[C@H](Oc3ccc([N+](=O)[O-])cc3)[C@H](NC(C)=O)[C@@H](O[C@@H]3O[C@H](CO)[C@H](O)[C@H](O)[C@H]3O)[C@H]2O)O[C@H](CO)[C@@H](O)[C@@H]1O [βGlcNAc(1,6)[βGal(1,3)]αGalNAc-p-Nph]
0.2	(0.6)	0.01	(0.3)	0.1	(0.3)	0.03	(1.0)	–	–	CC(=O)NC1C(OC2C(O)C(CO)OC(Oc3ccc([N+](=O)[O-])cc3)C2NC(C)=O)OC(CO)C(O)C1O [β-D-GlcNAc-(1–3)-α-D-GalNAc-p-Nph]
–	–	–	–	–	–	–	–	0.03	0.03	CC(=O)N[C@H]1[C@H](OCc2ccccc2)O[C@H](CO)[C@@H](O)[C@@H]1O [β-D-GlcNAc-Bzl]
